# Results as given in US10590109B2, “Heterocyclic compounds used as FGFR inhibitors” (Nanjing InnoCare Pharma Tech Co., Ltd., priority 2016, dated 2020).
# Assays:
# [1] = molecular target: human recombinant FGFR4 catalytic structural domain protein (Homo sapiens (Human), UniProt P22455); experiment: FGFR4 activity inhibition test (HTRF kinase assay); type: biochemical; conditions: 90 μM ATP
# Experimental: FGFR4 Activity Inhibition Test
# The influence of the compound according to the present invention on the activity of fibroblast growth factor receptor 4 (FGFR4) was evaluated by an in vitro kinase assay experiment.
# (§1) The experimental method is summarized as follows:
# The in vitro activity of FGFR4 was determined by assaying the phosphorylation level of the substrate in the kinase reaction, by means of an HTRF kinase assay kit.
# (§2) If the IC50 value of the compound was very low, the initial concentration of the compound could be reduced.
# (§3) After 60 min, the enzyme reaction was terminated by EDTA in the assay solution, and the phosphorylated products were identified by both the Eu^3+ labeled cage-shaped antibody (donor) and the streptavidin labeled XL665 antibody (receptor) at the same time. […] The inhibition percentage of the compound against FGFR4 activity could be calculated with the following formula: Inhibition percentage=100−100*(signalcompound−signalnegative control)/(signalpositive control−signalnegative control)
# (§4) The IC50 value of the compound was calculated by the following formula, from 10 concentration points, with XLfit (ID Business Solutions Ltd., UK): Y=Bottom+(Top−Bottom)/(1+10^((Log IC50−X)*slope factor)) Where, Y is the inhibition percentage, Bottom is the bottom plateau of the curve (the bottom plateau of the S-type curve), Top is the top plateau of the curve (the top plateau of the S-type curve), and X is the log value of the compound concentration to be measured.
# [2] = molecular target: human recombinant FGFR3 catalytic structural domain protein (Homo sapiens (Human), UniProt P22607); experiment: FGFR3 activity inhibition test (HTRF kinase assay); type: biochemical; conditions: 90 μM ATP
# Experimental: FGFR3 Activity Inhibition Test
# The influence of the compound according to the present invention on the activity of fibroblast growth factor receptor 3 (FGFR3) was evaluated by an in vitro kinase assay experiment.
# as §1
# The in vitro activity of FGFR3 was determined by assaying the phosphorylation level of the substrate in the kinase reaction, by means of an HTRF kinase assay kit. The reaction buffer comprised the following components: 5-fold diluted Enzymatic buffer/kinase 5× (Cisbio, Catalog number 62EZBFDD) (main ingredient: 50 mM HEPES, pH 7.0), 5 mM MgCl2, 1 mM DTT; the human recombinant FGFR3 catalytic structural domain protein (amino acids 399-806) was commercially available from Sino Biological Inc., diluted with the reaction buffer to a 0.3 ng/μL kinase solution; the substrate reaction solution comprised a biotin labeled tyrosine kinase substrate diluted with the reaction buffer to 1000 nM (Cisbio, catalog number 62TK0PEC), and 90 μM ATP, and the assay solution comprised an Eu^3+ labeled cage-shaped antibody (Cisbio, Catalog number 61T66KLB) diluted with the assay buffer (Cisbio, Catalog number 62SDBRDF) to 0.125 ng/μL, and 62.5 nM streptavidin labeled XL665 (Cisbio, Catalog number 610SAXLB).
# (§5) The compound was dissolved and diluted in 100% DMSO to 100 μM, then 4-fold-series diluted with DMSO to a minimum concentration of 0.0061 μM, and each concentration point was then 40-fold diluted with the reaction buffer. If the IC50 value of the compound was very low, the initial concentration of the compound could be reduced.
# (§6) 4 μL of a compound solution and 2 μL of an FGFR3 kinase solution were added into a 384 well assay plate (Thermo, Catalog number 264706), mixed uniformly and then incubated for 15 min at room temperature; subsequently, 4 μL of the substrate reaction solution was added therein, and the reaction mixture was incubated for 60 min at room temperature; and then 10 μL of an assay solution of an equal volume to the reaction was added therein and mixed uniformly, followed by placement at room temperature. After 60 min, the enzyme reaction was terminated by EDTA in the assay solution, and the phosphorylated products were identified by both the Eu^3+ labeled cage-shaped antibody (donor) and the streptavidin labeled XL665 antibody (receptor) at the same time. After the excitation with laser, the donors and receptors that were close to each other experienced energy resonance transfer, and the energy transferred from the donor (620 nm) to the receptor (665 nm) could be detected with Envision. The ratio of 665/620 is in positive correlation to the phosphorylation degree of the substrate, thereby to detect the FGFR3 kinase activity. […] The inhibition percentage of the compound against […] activity could be calculated with the following formula: Inhibition percentage=100−100*(signalcompound−signalnegative control)/(signalpositive control−signalnegative control)
# as §4
# [3] = molecular target: human recombinant FGFR1 catalytic structural domain protein (Homo sapiens (Human), UniProt P11362); experiment: FGFR1 activity inhibition test (HTRF kinase assay); type: biochemical; conditions: 40 μM ATP
# Experimental: FGFR1 Activity Inhibition Test
# The influence of the compound according to the present invention on the activity of fibroblast growth factor receptor 1 (FGFR1) was evaluated by an in vitro kinase assay experiment.
# as §1
# The in vitro activity of FGFR1 was determined by assaying the phosphorylation level of the substrate in the kinase reaction, by means of an HTRF kinase assay kit.
# as §2
# as §3, with “FGFR1” for “FGFR4”
# (§7) The IC50 value of the compound was calculated by the following formula, from 10 concentration points, with XLfit (ID Business Solutions Ltd., UK): Y=Bottom+(Top−Bottom)/(1+10^((Log IC50−X)*slope factor))
# (§8) Where, Y is the inhibition percentage, Bottom is the bottom plateau of the curve (the bottom plateau of the S-type curve), Top is the top plateau of the curve (the top plateau of the S-type curve), and X is the log value of the compound concentration to be measured.
# [4] = molecular target: human recombinant FGFR2 catalytic structural domain protein (Homo sapiens (Human), UniProt P21802); experiment: FGFR2 activity inhibition test (HTRF kinase assay); type: biochemical; conditions: 50 μM ATP
# Experimental: FGFR2 Activity Inhibition Test
# The influence of the compound according to the present invention on the activity of fibroblast growth factor receptor 2 (FGFR2) was evaluated by an in vitro kinase assay experiment.
# as §1
# The in vitro activity of FGFR2 was determined by assaying the phosphorylation level of the substrate in the kinase reaction, by means of an HTRF kinase assay kit. The reaction buffer comprised the following components: 5-fold diluted Enzymatic buffer/kinase 5× (Cisbio, Catalog number 62EZBFDD) (main ingredient: 50 mM HEPES, pH 7.0), 5 mM MgCl2, 1 mM DTT; the human recombinant FGFR2 catalytic structural domain protein (amino acids 400-821) was commercially available from Beijing Sino Biological Inc., diluted with the reaction buffer to a 0.045 ng/μL kinase solution; the substrate reaction solution comprised a biotin labeled tyrosine kinase substrate diluted with the reaction buffer to 800 nM (Cisbio, catalog number 62TK0PEC), and 50 μM ATP, and the assay solution comprised an Eu^3+ labeled cage-shaped antibody (Cisbio, Catalog number 61T66KLB) diluted with the assay buffer (Cisbio, Catalog number 62SDBRDF) to 0.125 ng/μL, and 50 nM streptavidin labeled XL665 (Cisbio, Catalog number 610SAXLB).
# as §5
# as §6, with “FGFR2” for “FGFR3”
# as §7, §8
# Hep3B cells = experiment: Hep3B cell proliferation inhibition test (CellTiter-Glo); type: cell-based; conditions: Homo sapiens, 72 h, CTG
# Experimental: Hep3B Cell Proliferation Inhibition Test
# The influence of the compound according to the present invention on Hep3B cell proliferation was evaluated by a luminescence cell viability test.
# as §1
# A CellTilter-Glo (CTG) assay kit was used to detect an indicator ATP of active cellular metabolism by means of a unique stable luciferase, and the luminous signal produced in the test was in direct proportion to the count of active cells in the medium, thereby to detect the cell proliferation of Hep3B.
# A CellTilter-Glo agent (Promega, G7572) was comprised of a CellTilter-Glo lyophilized powder and a CellTilter-Glo buffer, and the lyophilized powder was dissolved into the buffer in use.
# Hep3B cells (ATCC, HB-8064) (cell source: Shanghai Academy of Life Sciences, Chinese Academy of Sciences) were cultured in a DMEM complete medium (Thermofisher, 11995073) containing a 10% FBS (GBICO, 10099-141) and 100 units/ml mycillin mixed solution (Thermofisher, 15140122). When the cells coverage reached 80-90% in the culture vessel, after the cells were digested and blown about with 0.25% pancreatin (containing EDTA) (Thermofisher, 25200056), they were planted in a white 384 well plate (Thermofisher, 164610), with 1000 cells in each well (27 μl of a DMEM complete medium), and then the 384 well plate was placed into an incubator at 37° C. and 5% CO2 and cultured overnight (18-20 h). The compound was dissolved and diluted in 100% DMSO to 100 μM, then 4-fold-series diluted with DMSO to a minimum concentration of 0.0061 μM, and each concentration point was 50-fold diluted with the FBS-free DMEM medium. If the IC50 value of the compound was very low, the initial concentration of the compound could be reduced. […] This 384 well plate was placed into an incubator at 37° C. and 5% CO2 for further culture, taken out after 72 h, and stood at room temperature for 30 min. The CTG agent was also taken out and balanced to room temperature. 15 μl of the CTG agent was added into each well, and placed onto a shaker to be gently shaken for 3 min to ensure sufficient cell lysis. After 10 min of standing to allow the luminescence signal to be stable, the luminescence signal was read with EnVision (Perkin Elmer).
# The inhibition percentage of the compound against Hep3B cell proliferation could be calculated with the following formula: Inhibition percentage=100−100*(signalcompound−signalnegative control)/(signalpositive control−signalnegative control)
# The IC50 value of the compound was calculated by the following formula, from 8 concentration points, with XLfit (ID Business Solutions Ltd., UK): Y=Bottom+(Top−Bottom)/(1+10^((Log IC50−X)*slope factor))
# as §8
# Chain of human recombinant FGFR3 catalytic structural domain protein (P22607 399-806): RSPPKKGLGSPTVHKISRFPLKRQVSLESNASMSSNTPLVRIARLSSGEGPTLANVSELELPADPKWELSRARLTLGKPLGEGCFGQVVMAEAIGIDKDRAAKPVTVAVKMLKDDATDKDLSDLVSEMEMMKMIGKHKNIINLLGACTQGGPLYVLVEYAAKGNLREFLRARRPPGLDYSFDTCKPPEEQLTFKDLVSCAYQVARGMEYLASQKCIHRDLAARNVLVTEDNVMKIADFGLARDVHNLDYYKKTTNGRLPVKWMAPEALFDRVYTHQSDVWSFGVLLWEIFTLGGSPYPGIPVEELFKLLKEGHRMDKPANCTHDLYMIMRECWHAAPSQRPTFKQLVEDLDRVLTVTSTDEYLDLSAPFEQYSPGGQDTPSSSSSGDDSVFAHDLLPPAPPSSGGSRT
# Chain of human recombinant FGFR1 catalytic structural domain protein (P11362 other isoform, or with tags, fused parts or gaps): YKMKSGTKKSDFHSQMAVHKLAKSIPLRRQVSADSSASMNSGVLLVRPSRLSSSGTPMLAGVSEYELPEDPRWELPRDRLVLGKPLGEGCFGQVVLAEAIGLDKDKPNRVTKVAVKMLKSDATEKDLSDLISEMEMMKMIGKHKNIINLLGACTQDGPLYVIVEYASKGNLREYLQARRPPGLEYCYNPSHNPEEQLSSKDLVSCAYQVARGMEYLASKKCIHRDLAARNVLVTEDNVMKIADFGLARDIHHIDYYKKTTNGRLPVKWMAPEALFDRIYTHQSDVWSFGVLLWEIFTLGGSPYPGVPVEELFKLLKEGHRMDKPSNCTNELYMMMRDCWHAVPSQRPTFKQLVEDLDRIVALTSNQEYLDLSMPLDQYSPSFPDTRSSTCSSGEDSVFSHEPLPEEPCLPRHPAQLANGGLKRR
# Chain of human recombinant FGFR2 catalytic structural domain protein (P21802 400-821): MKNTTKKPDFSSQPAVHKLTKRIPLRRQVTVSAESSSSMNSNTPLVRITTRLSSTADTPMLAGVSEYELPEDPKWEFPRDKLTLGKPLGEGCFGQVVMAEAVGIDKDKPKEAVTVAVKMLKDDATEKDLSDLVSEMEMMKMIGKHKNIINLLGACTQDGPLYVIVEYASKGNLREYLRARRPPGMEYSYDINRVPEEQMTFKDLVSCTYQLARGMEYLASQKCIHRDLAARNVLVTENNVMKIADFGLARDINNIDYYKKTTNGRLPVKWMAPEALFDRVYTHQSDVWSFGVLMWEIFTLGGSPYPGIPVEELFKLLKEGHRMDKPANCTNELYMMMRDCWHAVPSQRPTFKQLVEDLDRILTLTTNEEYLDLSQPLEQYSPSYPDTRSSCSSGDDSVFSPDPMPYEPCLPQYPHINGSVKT
# Chain of human recombinant FGFR4 catalytic structural domain protein (P22455 460-802): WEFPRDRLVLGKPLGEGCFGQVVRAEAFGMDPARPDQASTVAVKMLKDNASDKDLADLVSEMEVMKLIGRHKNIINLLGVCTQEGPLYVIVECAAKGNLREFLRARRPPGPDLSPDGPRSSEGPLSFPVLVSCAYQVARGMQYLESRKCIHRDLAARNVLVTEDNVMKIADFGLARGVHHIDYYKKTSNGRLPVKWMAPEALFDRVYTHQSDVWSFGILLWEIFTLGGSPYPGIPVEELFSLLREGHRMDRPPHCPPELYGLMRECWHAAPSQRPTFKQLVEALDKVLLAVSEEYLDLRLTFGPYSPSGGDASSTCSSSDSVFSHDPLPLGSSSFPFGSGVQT
Structure (SMILES),IC50 [1] [nM],IC50 [2] [nM],IC50 [3] [nM],IC50 [4] [nM],IC50 (Hep3B cells) [nM]
"C[C@H](CO)Oc1cc(NC(=O)N(C)c2ccc(CN3CCN(C)CC3=O)c(C=O)n2)ncc1C#N [Compound 25, (R)-3-(5-cyano-4-((1-hydroxyprop-2-yl)oxy)pyrid-2-yl)-1-(6-formyl-5-((4-methyl-2-carbonylpiperazin-1-yl)methyl)pyrid-2-yl)-1-methylurea]",< 10,> 1000,> 1000,> 1000,–
CC(C)Oc1cc(NC(=O)N(C)c2ccc(CN3CCOCC3=O)c(C=O)n2)ncc1C#N [Compound 13],10 to 100,> 1000,> 1000,> 1000,–
"CN(C(=O)Nc1cc(Cl)c(C#N)cn1)c1ccc(CO)c(C=O)n1 [Compound 22, 3-(4-chloro-5-cyanopyrid-2-yl)-1-(6-formyl-5-(hydroxymethyl)pyrid-2-yl)-1-methylurea]",100 to 1000,> 1000,> 1000,> 1000,–
"COCCNc1cc(NC(=O)N(C)c2ccc(C3CCNCC3)c(C=O)n2)ncc1C#N [Compound 23, 3-(5-cyano-4-((2-methoxyethyl)amino)pyrid-2-yl)-1-(6-formyl-5-(piperidin-4-yl)pyrid-2-yl)-1-methylurea]",10 to 100,–,> 1000,> 1000,50 to 100
"COCCNc1cc(NC(=O)N(C)c2ccc(CO)c(C=O)n2)ncc1C#N [Compound 21, 3-(5-cyano-4-((2-methoxyethyl)amino)pyrid-2-yl)-1-(6-formyl-5-(hydroxymethyl)pyrid-2-yl)-1-methylurea]",100 to 1000,> 1000,> 1000,> 1000,–
CN(C(=O)Nc1cc(Cl)c(C#N)cn1)c1ccc(CN2CCOCC2=O)c(C=O)n1 [Compound 11],10 to 100,> 1000,> 1000,> 1000,–
"COCCOc1cc(NC(=O)N(C)c2ccc(CN3CCN(C)CC3=O)c(C=O)n2)ncc1C#N [Compound 20, 3-(5-cyano-4-(2-methoxyethoxy)pyrid-2-yl)-1-(6-formyl-5-((4-methyl-2-carbonylpiperazin-1-yl)methyl)pyrid-2-yl)-1-methylurea]",< 10,> 1000,> 1000,> 1000,–
